The source made the active and inactive calls. How the calls were made is not given here.
Tested on: CCRIS mutagenicity, Ames/micronucleus/aberration tests
Test: CCRIS mutagenicity studies

COc1cccc2c1C(=O)c1c(O)c3c(c(O)c1C2=O)C[C@@](O)(C(=O)CO)C[C@@H]3O[C@H]1C[C@H](N)[C@H](O)[C@H](C)O1
mutagenic call (End Point: IN VITRO CHROMOSOMAL ABERRATIONS, Test System: CHO-WBL CELLS, Metabolic Activation: NONE): active; positive
mutagenic call (End Point: IN VITRO CHROMOSOMAL ABERRATIONS, Test System: HUMAN (MALE) PERIPHERAL LYMPHOCYTES, Metabolic Activation: NONE, Method: FISH (METAPHASE)): active; positive (structural changes)
mutagenic call (End Point: IN VIVO CHROMOSOMAL ABERRATIONS, Test System: BONE MARROW CELLS, Species: RAT, Strain/Sex: WISTAR/MALE, FEMALE, Route: IP): active; positive (structural changes; abnormal metaphase)
mutagenic call (End Point: IN VIVO CHROMOSOMAL ABERRATIONS, Test System: BONE MARROW CELLS, Species: RAT, Strain/Sex: WISTAR, Route: IP): active; positive
mutagenic call (End Point: IN VIVO CHROMOSOMAL ABERRATIONS, Test System: BONE MARROW, Species: RAT, Strain/Sex: WISTAR/MALE, FEMALE, Route: INTRAPERITONEAL): active; positive (structural changes)
mutagenic call (End Point: IN VIVO CHROMOSOMAL ABERRATIONS, Test System: BONE MARROW, Species: RAT, Strain/Sex: WISTAR, Route: INTRAPERITONEAL (TEST MATERIAL SOLVENT: WATER)): active; positive (structural changes)
mutagenic call (End Point: In vitro chromosomal aberrations, Test System: Chinese hamster ovary (CHO) cells, Metabolic Activation: None): active; positive (structural changes)
mutagenic call (End Point: In vitro chromosomal aberrations, Test System: Human (female) lymphocytes): active; positive. fucus vesiculosus extract (84696-13-9) at 0.25-1.0 mg/ml was antimutag
mutagenic call (End Point: In vitro chromosomal aberrations, Test System: Human lymphocytes, Metabolic Activation: None): active; positive (structural changes). significantly reduced by selenomethionine treatme
mutagenic call (End Point: In vitro micronucleus, Test System: Human peripheral blood lymphocytes, Metabolic Activation: None): active; positive
mutagenic call (End Point: In vivo chromosomal aberrations, Test System: Bone marrow cells, Species: Rat, Strain/Sex: Wistar/Male and female, Route: Intraperitoneal): active; positive (structural changes); administration of vitamin c or vitamin e decrease
mutagenic call (End Point: In vivo chromosomal aberrations, Test System: Bone marrow cells, Species: Rat, Strain/Sex: Wistar/Male and female, Route: Oral): active; positive (structural changes)
mutagenic call (End Point: In vivo chromosomal aberrations, Test System: Bone marrow, Species: Rat, Strain/Sex: Wistar/Male and female, Route: Intraperitoneal (Test material solvent: either distilled water or DMSO solution)): active; positive (structural changes). prior treatment with propolis extract reduced the
mutagenic call (End Point: In vivo micronucleus, Test System: Bone marrow erythrocytes, Species: Mouse, Strain/Sex: Swiss albino/Male, Route: Oral): inactive; negative
mutagenic call (Test System: AMES SALMONELLA TYPHIMURIUM, Strain/Indicator: GW257, Metabolic Activation: NONE, Method: STANDARD PLATE): active; positive
mutagenic call (Test System: AMES SALMONELLA TYPHIMURIUM, Strain/Indicator: TA97, Metabolic Activation: NONE, Method: STANDARD PLATE): inactive; negative
mutagenic call (Test System: AMES SALMONELLA TYPHIMURIUM, Strain/Indicator: TA97, Metabolic Activation: RAT, LIVER, S-9, PHENOBARBITAL AND ALPHA-NAPHTHOFLAVONE, Method: STANDARD PLATE): inactive; negative
mutagenic call (Test System: AMES SALMONELLA TYPHIMURIUM, Strain/Indicator: TA97A, Metabolic Activation: NONE, Method: STANDARD PLATE): inactive; negative
mutagenic call (Test System: AMES SALMONELLA TYPHIMURIUM, Strain/Indicator: TA97A, Metabolic Activation: RAT, LIVER, S-9, AROCLOR 1254, Method: STANDARD PLATE): inactive; negative
mutagenic call (Test System: AMES SALMONELLA TYPHIMURIUM, Strain/Indicator: TA98, Metabolic Activation: NONE, Method: PREINCUBATION): active; positive
mutagenic call (Test System: AMES SALMONELLA TYPHIMURIUM, Strain/Indicator: TA98, Metabolic Activation: RAT, LIVER, S-9, AROCLOR 1254, Method: STANDARD PLATE): active; positive
mutagenic call (Test System: AMES SALMONELLA TYPHIMURIUM, Strain/Indicator: TA98, Metabolic Activation: RAT, LIVER, S-9, KC500 OR PHENOBARBITAL, Method: LIQUID SUSPENSION): active; positive
mutagenic call (Test System: AMES SALMONELLA TYPHIMURIUM, Strain/Indicator: TA98, Metabolic Activation: RAT, LIVER, S-9, PHENOBARBITAL AND ALPHA-NAPHTHOFLAVONE, Method: STANDARD PLATE): active; positive
mutagenic call (Test System: AMES SALMONELLA TYPHIMURIUM, Strain/Indicator: TA98, Metabolic Activation: S-9, Method: PREINCUBATION): active; positive
mutagenic call (Test System: AMES SALMONELLA TYPHIMURIUM, Strain/Indicator: TA100, Metabolic Activation: NONE, Method: PREINCUBATION): inactive; negative
mutagenic call (Test System: AMES SALMONELLA TYPHIMURIUM, Strain/Indicator: TA100, Metabolic Activation: RAT, LIVER, S-9, AROCLOR 1254, Method: STANDARD PLATE): inactive; negative
mutagenic call (Test System: AMES SALMONELLA TYPHIMURIUM, Strain/Indicator: TA100, Metabolic Activation: RAT, LIVER, S-9, PHENOBARBITAL AND ALPHA-NAPHTHOFLAVONE, Method: STANDARD PLATE): active; positive
mutagenic call (Test System: AMES SALMONELLA TYPHIMURIUM, Strain/Indicator: TA100, Metabolic Activation: S-9, Method: PREINCUBATION): active; positive
mutagenic call (Test System: AMES SALMONELLA TYPHIMURIUM, Strain/Indicator: TA102, Metabolic Activation: NONE, Method: STANDARD PLATE): active; positive
mutagenic call (Test System: AMES SALMONELLA TYPHIMURIUM, Strain/Indicator: TA102, Metabolic Activation: RAT, LIVER, S-9, AROCLOR 1254, Method: STANDARD PLATE): active; positive
mutagenic call (Test System: AMES SALMONELLA TYPHIMURIUM, Strain/Indicator: TA1535, Metabolic Activation: NONE, Method: STANDARD PLATE): inactive; negative
mutagenic call (Test System: AMES SALMONELLA TYPHIMURIUM, Strain/Indicator: TA1535, Metabolic Activation: RAT, LIVER, S-9, PHENOBARBITAL AND ALPHA-NAPHTHOFLAVONE, Method: STANDARD PLATE): inactive; negative
mutagenic call (Test System: AMES SALMONELLA TYPHIMURIUM, Strain/Indicator: TA1537, Metabolic Activation: NONE, Method: STANDARD PLATE): inactive; negative
mutagenic call (Test System: AMES SALMONELLA TYPHIMURIUM, Strain/Indicator: TA1978/PKM101, Metabolic Activation: NONE, Method: STANDARD PLATE): active; positive
mutagenic call (Test System: AMES SALMONELLA TYPHIMURIUM, Strain/Indicator: TA1978, Metabolic Activation: NONE, Method: STANDARD PLATE): inactive; negative
mutagenic call (Test System: AMES SALMONELLA TYPHIMURIUM, Strain/Indicator: TA2637, Metabolic Activation: NONE, Method: STANDARD PLATE): active; positive
mutagenic call (Test System: CHINESE HAMSTER OVARY, Strain/Indicator: CHO-AS52 (GPT), Metabolic Activation: NONE): active; positive
mutagenic call (Test System: CHINESE HAMSTER OVARY, Strain/Indicator: CHO-K1-BH4 (HPRT), Metabolic Activation: NONE): active; positive
mutagenic call (Test System: CHINESE HAMSTER V-79, Strain/Indicator: V-79 (HGPRT)/6-THIOGUANINE, Metabolic Activation: NONE): active; positive
mutagenic call (Test System: CHINESE HAMSTER V-79, Strain/Indicator: V-79-MZ (HPRT)/6-THIOGUANINE, Metabolic Activation: NONE): active; positive
mutagenic call (Test System: CHINESE HAMSTER V-79, Strain/Indicator: V-79/6-THIOGUANINE, Metabolic Activation: RAT, LIVER, HEPATOCYTES, Method: SUSPENSION/PLATE): active; positive
mutagenic call (Test System: CHINESE HAMSTER V-79, Strain/Indicator: V-79/6-THIOGUANINE, Metabolic Activation: RAT, LIVER, HOMOGENATE, Method: SUSPENSION/PLATE): inactive; negative
mutagenic call (Test System: CHINESE HAMSTER V-79, Strain/Indicator: V-79/8-AZAGUANINE, Metabolic Activation: NONE, Method: STANDARD PLATE): active; positive
mutagenic call (Test System: CHINESE HAMSTER V-E5, Strain/Indicator: V-E5 (HPRT)/6-THIOGUANINE, Metabolic Activation: NONE): active; positive
mutagenic call (Test System: E. COLI, Strain/Indicator: WP2 (HCR), Metabolic Activation: NONE, Method: STANDARD PLATE): inactive; negative
mutagenic call (Test System: MOUSE LYMPHOMA, Strain/Indicator: L5178Y (TK+/TK-), Metabolic Activation: NONE, Method: SUSPENSION/PLATE): active; positive

CCCCCC=O
mutagenic call (Test System: CHINESE HAMSTER V-79, Strain/Indicator: V-79/6-THIOGUANINE (HGPRT), Metabolic Activation: NONE, Method: REPLATING): active; positive
mutagenic call (Test System: CHINESE HAMSTER V-79, Strain/Indicator: V-79/OUABAIN (NA/K), Metabolic Activation: NONE, Method: REPLATING): active; positive
mutagenic call (Test System: UDS HUMAN HEPATOCYTES, Strain/Indicator: THY INCORP, Metabolic Activation: NONE, Method: AUTORADIOGRAPHY): inactive; negative
mutagenic call (Test System: UDS RAT HEPATOCYTES, Strain/Indicator: THY INCORP, Metabolic Activation: NONE, Method: AUTORADIOGRAPHY): active; positive

Reference: PubChem BioAssay AID1259407 (Chemical Carcinogenesis Research Information System (CCRIS), 2018)
